# Measurements reported in the NIST ThermoML archive (doi:10.1021/acs.jced.6b00772).
# ± gives the expanded uncertainty stated by the source.
# Conditions: Fluid (supercritical or subcritical phases), isochoric method
smiles,measurement,setting,value
O=C(C(F)(F)C(F)(F)F)C(F)(C(F)(F)F)C(F)(F)F [dodecafluoro-2-methylpentan-3-one],mass density,"333.47 K, 4628.4 kPa",1526.2 ± 6.1 kg/m3
same,mass density,"343.46 K, 3695.1 kPa",1489 ± 6 kg/m3
same,mass density,"353.46 K, 597.1 kPa",1425.9 ± 5.7 kg/m3
same,mass density,"353.46 K, 7818.2 kPa",1488.3 ± 6 kg/m3
same,mass density,"363.45 K, 4019 kPa",1425.2 ± 5.7 kg/m3
same,mass density,"373.46 K, 849.3 kPa",1348 ± 5.9 kg/m3
same,mass density,"373.46 K, 7450.4 kPa",1424.5 ± 5.7 kg/m3
same,mass density,"383.46 K, 3567.3 kPa",1347.4 ± 5.4 kg/m3
same,mass density,"393.47 K, 6308 kPa",1346.8 ± 5.4 kg/m3
same,mass density,"393.5 K, 1730.8 kPa",1273.5 ± 5.1 kg/m3
same,mass density,"403.46 K, 831.5 kPa",107.8 ± 39 kg/m3
same,mass density,"403.46 K, 9056.2 kPa",1346.1 ± 5.4 kg/m3
same,mass density,"403.48 K, 1044.1 kPa",1195.8 ± 39 kg/m3
same,mass density,"403.5 K, 3917.8 kPa",1272.9 ± 5.1 kg/m3
same,mass density,"413.46 K, 1666.3 kPa",1157.5 ± 6.3 kg/m3
same,mass density,"413.48 K, 873.1 kPa",107.8 ± 11 kg/m3
same,mass density,"413.48 K, 2784 kPa",1195.2 ± 4.8 kg/m3
same,mass density,"413.5 K, 6126.2 kPa",1272.3 ± 5.1 kg/m3
same,mass density,"423.47 K, 3219 kPa",1156.9 ± 4.7 kg/m3
same,mass density,"423.49 K, 913.6 kPa",107.7 ± 5.4 kg/m3
same,mass density,"423.49 K, 4554.9 kPa",1194.6 ± 4.8 kg/m3
same,mass density,"423.49 K, 8348.4 kPa",1271.7 ± 5.1 kg/m3
same,mass density,"433.46 K, 1423 kPa",209.1 ± 7.5 kg/m3
same,mass density,"433.47 K, 4799.8 kPa",1156.4 ± 4.7 kg/m3
same,mass density,"433.48 K, 2354.6 kPa",1044.1 ± 4.3 kg/m3
same,mass density,"433.49 K, 953.3 kPa",107.7 ± 1.8 kg/m3
same,mass density,"433.49 K, 1785.7 kPa",980.1 ± 7.9 kg/m3
same,mass density,"433.49 K, 6349 kPa",1194.1 ± 4.8 kg/m3
same,mass density,"443.47 K, 1703.9 kPa",270.5 ± 5.5 kg/m3
same,mass density,"443.48 K, 1517.2 kPa",209 ± 3.3 kg/m3
same,mass density,"443.48 K, 1862.8 kPa",384.5 ± 7 kg/m3
same,mass density,"443.48 K, 1909.2 kPa",553.6 ± 11 kg/m3
same,mass density,"443.48 K, 2368.4 kPa",932 ± 4.1 kg/m3
same,mass density,"443.48 K, 6401.8 kPa",1155.8 ± 4.6 kg/m3
same,mass density,"443.49 K, 991.3 kPa",107.6 ± 1.6 kg/m3
same,mass density,"443.49 K, 1905.5 kPa",490.7 ± 5.6 kg/m3
same,mass density,"443.49 K, 1950.5 kPa",733.6 ± 23 kg/m3
same,mass density,"443.5 K, 1925.1 kPa",626.4 ± 43 kg/m3
same,mass density,"443.5 K, 1983.4 kPa",797.9 ± 9.4 kg/m3
same,mass density,"443.5 K, 2050.5 kPa",844.7 ± 6.5 kg/m3
same,mass density,"443.5 K, 2089.1 kPa",861.9 ± 5.6 kg/m3
same,mass density,"443.5 K, 2696.6 kPa",979.6 ± 4 kg/m3
same,mass density,"443.5 K, 3478.7 kPa",1043.6 ± 4.2 kg/m3
same,mass density,"443.5 K, 8156.2 kPa",1193.5 ± 4.8 kg/m3
same,mass density,"453.48 K, 3187.2 kPa",931.6 ± 3.9 kg/m3
same,mass density,"453.49 K, 1028.2 kPa",107.6 ± 1.5 kg/m3
same,mass density,"453.49 K, 2074 kPa",384.3 ± 5.6 kg/m3
same,mass density,"453.49 K, 2237.3 kPa",553.3 ± 8.8 kg/m3
same,mass density,"453.49 K, 2415.6 kPa",733.2 ± 6.5 kg/m3
same,mass density,"453.49 K, 8016.6 kPa",1155.3 ± 4.6 kg/m3
same,mass density,"453.5 K, 1608.6 kPa",208.9 ± 2.7 kg/m3
same,mass density,"453.5 K, 1836 kPa",270.4 ± 3.2 kg/m3
same,mass density,"453.5 K, 2302.1 kPa",626.1 ± 8.5 kg/m3
same,mass density,"453.5 K, 2679.9 kPa",844.3 ± 4 kg/m3
same,mass density,"453.51 K, 3642.6 kPa",979.1 ± 4 kg/m3
same,mass density,"453.51 K, 4628.3 kPa",1043.2 ± 4.2 kg/m3
same,mass density,"453.52 K, 2543.8 kPa",797.5 ± 4.8 kg/m3
same,mass density,"453.52 K, 2753.3 kPa",861.5 ± 5.8 kg/m3
same,mass density,"453.52 K, 9972.1 kPa",1192.9 ± 4.8 kg/m3
same,mass density,"453.53 K, 2192.7 kPa",490.4 ± 8.1 kg/m3
same,mass density,"463.48 K, 1697.6 kPa",208.8 ± 1.8 kg/m3
same,mass density,"463.49 K, 1963.3 kPa",270.2 ± 2.7 kg/m3
same,mass density,"463.49 K, 5794.1 kPa",1042.7 ± 4.2 kg/m3
same,mass density,"463.5 K, 1065.3 kPa",107.5 ± 1.4 kg/m3
same,mass density,"463.5 K, 2277.3 kPa",384.1 ± 3.9 kg/m3
same,mass density,"463.5 K, 2561.8 kPa",553 ± 5.7 kg/m3
same,mass density,"463.5 K, 2685.7 kPa",625.8 ± 4.9 kg/m3
same,mass density,"463.5 K, 2908.5 kPa",732.9 ± 4.4 kg/m3
same,mass density,"463.5 K, 4032.8 kPa",931.2 ± 3.8 kg/m3
same,mass density,"463.5 K, 9636.7 kPa",1154.7 ± 4.6 kg/m3
same,mass density,"463.51 K, 2470.7 kPa",490.2 ± 5.4 kg/m3
same,mass density,"463.51 K, 3127.9 kPa",797.1 ± 3.9 kg/m3
same,mass density,"463.51 K, 3336.1 kPa",843.9 ± 3.6 kg/m3
same,mass density,"463.52 K, 3442 kPa",861.1 ± 3.5 kg/m3
same,mass density,"463.52 K, 4610 kPa",978.7 ± 4 kg/m3
same,mass density,"473.49 K, 2087.5 kPa",270.1 ± 2.4 kg/m3
same,mass density,"473.49 K, 3412 kPa",732.5 ± 3.7 kg/m3
same,mass density,"473.49 K, 4891.4 kPa",930.7 ± 3.8 kg/m3
same,mass density,"473.5 K, 1102 kPa",107.5 ± 1.3 kg/m3
same,mass density,"473.5 K, 1785 kPa",208.7 ± 1.7 kg/m3
same,mass density,"473.5 K, 2476.2 kPa",383.9 ± 3.1 kg/m3
same,mass density,"473.5 K, 2884.8 kPa",552.8 ± 4.1 kg/m3
same,mass density,"473.5 K, 3074.2 kPa",625.5 ± 3.7 kg/m3
same,mass density,"473.51 K, 2746.7 kPa",490 ± 3.8 kg/m3
same,mass density,"473.51 K, 5591.7 kPa",978.2 ± 4 kg/m3
same,mass density,"473.51 K, 6974.8 kPa",1042.2 ± 4.2 kg/m3
same,mass density,"473.52 K, 4008.9 kPa",843.5 ± 3.6 kg/m3
same,mass density,"473.52 K, 4147 kPa",860.7 ± 3.6 kg/m3
same,mass density,"473.53 K, 3727.6 kPa",796.7 ± 3.6 kg/m3
same,mass density,"483.48 K, 5762.4 kPa",930.3 ± 3.8 kg/m3
same,mass density,"483.49 K, 1870.9 kPa",208.6 ± 1.5 kg/m3
same,mass density,"483.49 K, 2209.8 kPa",270 ± 2.1 kg/m3
same,mass density,"483.49 K, 2672.1 kPa",383.8 ± 2.7 kg/m3
same,mass density,"483.5 K, 3464.6 kPa",625.2 ± 3.2 kg/m3
same,mass density,"483.5 K, 3924.7 kPa",732.2 ± 3.4 kg/m3
same,mass density,"483.5 K, 8161 kPa",1041.7 ± 4.2 kg/m3
same,mass density,"483.51 K, 1138.4 kPa",107.4 ± 1.2 kg/m3
same,mass density,"483.51 K, 3208.9 kPa",552.5 ± 3.4 kg/m3
same,mass density,"483.52 K, 3020.8 kPa",489.7 ± 3.3 kg/m3
same,mass density,"483.52 K, 4336.7 kPa",796.4 ± 3.4 kg/m3
same,mass density,"483.52 K, 4691.3 kPa",843.1 ± 3.5 kg/m3
same,mass density,"483.52 K, 4863.8 kPa",860.3 ± 3.6 kg/m3
same,mass density,"483.52 K, 6584 kPa",977.8 ± 3.9 kg/m3
same,mass density,"493.49 K, 1955 kPa",208.5 ± 1.4 kg/m3
same,mass density,"493.49 K, 2329.9 kPa",269.9 ± 1.9 kg/m3
same,mass density,"493.49 K, 2865 kPa",383.6 ± 2.4 kg/m3
same,mass density,"493.5 K, 3858.2 kPa",624.9 ± 3 kg/m3
same,mass density,"493.5 K, 4442.7 kPa",731.8 ± 3.2 kg/m3
same,mass density,"493.5 K, 6642.5 kPa",929.8 ± 3.8 kg/m3
same,mass density,"493.5 K, 9354.4 kPa",1041.2 ± 4.2 kg/m3
same,mass density,"493.51 K, 1174.7 kPa",107.4 ± 1.2 kg/m3
same,mass density,"493.51 K, 5382.6 kPa",842.7 ± 3.5 kg/m3
same,mass density,"493.52 K, 3532.9 kPa",552.2 ± 2.9 kg/m3
same,mass density,"493.52 K, 4954.4 kPa",796 ± 3.4 kg/m3
same,mass density,"493.52 K, 5589.2 kPa",859.9 ± 3.5 kg/m3
same,mass density,"493.53 K, 7585.3 kPa",977.3 ± 3.9 kg/m3
same,mass density,"493.54 K, 3292.9 kPa",489.5 ± 2.8 kg/m3
same,mass density,"503.49 K, 7526.9 kPa",929.4 ± 3.8 kg/m3
same,mass density,"503.5 K, 2038.9 kPa",208.4 ± 1.3 kg/m3
same,mass density,"503.5 K, 2448.7 kPa",269.7 ± 1.8 kg/m3
same,mass density,"503.51 K, 1210.7 kPa",107.3 ± 1.1 kg/m3
same,mass density,"503.51 K, 3055.8 kPa",383.4 ± 2.2 kg/m3
same,mass density,"503.51 K, 4251.2 kPa",624.7 ± 2.8 kg/m3
same,mass density,"503.52 K, 3562.4 kPa",489.3 ± 2.6 kg/m3
same,mass density,"503.52 K, 4964.5 kPa",731.5 ± 3.1 kg/m3
same,mass density,"503.53 K, 3855.8 kPa",552 ± 2.7 kg/m3
same,mass density,"503.53 K, 5577.4 kPa",795.6 ± 3.3 kg/m3
same,mass density,"503.53 K, 6079.9 kPa",842.3 ± 3.5 kg/m3
same,mass density,"503.53 K, 6319.5 kPa",859.5 ± 3.5 kg/m3
same,mass density,"503.53 K, 8592.1 kPa",976.8 ± 3.9 kg/m3
same,mass density,"513.49 K, 2121.4 kPa",208.3 ± 1.3 kg/m3
same,mass density,"513.49 K, 2565.8 kPa",269.6 ± 1.7 kg/m3
same,mass density,"513.5 K, 1245.5 kPa",107.3 ± 1.1 kg/m3
same,mass density,"513.5 K, 4646.1 kPa",624.4 ± 2.7 kg/m3
same,mass density,"513.5 K, 5488.2 kPa",731.1 ± 3.1 kg/m3
same,mass density,"513.5 K, 8416.4 kPa",928.9 ± 3.8 kg/m3
same,mass density,"513.51 K, 3244.9 kPa",383.2 ± 2.1 kg/m3
same,mass density,"513.52 K, 4177.8 kPa",551.7 ± 2.6 kg/m3
same,mass density,"513.52 K, 6780.4 kPa",841.9 ± 3.4 kg/m3
same,mass density,"513.52 K, 7055 kPa",859.1 ± 3.5 kg/m3
same,mass density,"513.53 K, 3830.9 kPa",489 ± 2.5 kg/m3
same,mass density,"513.53 K, 9599.7 kPa",976.4 ± 3.9 kg/m3
same,mass density,"513.54 K, 6204.5 kPa",795.2 ± 3.3 kg/m3
same,mass density,"523.49 K, 2682.3 kPa",269.5 ± 1.6 kg/m3
same,mass density,"523.49 K, 5040.8 kPa",624.1 ± 2.7 kg/m3
same,mass density,"523.49 K, 9308.2 kPa",928.5 ± 3.7 kg/m3
same,mass density,"523.5 K, 1281.4 kPa",107.2 ± 1 kg/m3
same,mass density,"523.5 K, 2203.4 kPa",208.2 ± 1.2 kg/m3
same,mass density,"523.5 K, 3433 kPa",383 ± 2 kg/m3
same,mass density,"523.52 K, 4099.2 kPa",488.8 ± 2.3 kg/m3
same,mass density,"523.52 K, 6015.2 kPa",730.8 ± 3 kg/m3
same,mass density,"523.53 K, 6832.9 kPa",794.9 ± 3.3 kg/m3
same,mass density,"523.53 K, 7485.5 kPa",841.5 ± 3.4 kg/m3
same,mass density,"523.54 K, 4499.9 kPa",551.5 ± 2.5 kg/m3
same,mass density,"523.54 K, 7793.7 kPa",858.7 ± 3.5 kg/m3
